What all share (format): cell-based
What all share (details): Homo sapiens, 10^−5 M, 72 hours, control = 100%, mean ± SEM, read-out: average optical density (MTT), percentage relative to control

The subject of one test is A-427. As to the kind of experiment: MTT test, A-427. The method in brief:
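Cells seeded at 20 000–50 000/ml and allowed 24 h before exposure to compound (10^−5 to 10^−10 M) or solvent for 72 h at 37° C, 5% CO2. Viability measured by MTT reduction (1 mg/ml, 3 h), formazan dissolved in DMSO, read at 570/630 nm. Values are optical density as % of solvent control.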
For orientation: Tetrazolium dyes change colour on reduction, which living cells bring about.

The next test relates to MCF7. As to the kind of experiment: MTT test, MCF7. The method in brief:
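T-47D and MCF7 cells in MEM/25 mM HEPES with 5% FCS, treated 72 h at 37 °C with compound at 10^−5 to 10^−10 M, 24 h after seeding. MTT (1 mg/ml) added for 3 h, formazan dissolved in DMSO, read at 570/630 nm. Optical density expressed as % of solvent control.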

The next test deals with PC-3. As to the kind of experiment: MTT test, PC-3. Put shortly:
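Cells seeded 24 h, then exposed to compounds at 10^−5 to 10^−10 M for 72 h at 37 °C in MEM with 5% FCS. MTT (1 mg/ml) added 3 h; formazan dissolved in DMSO, absorbance 570 nm with 630 nm background; optical density expressed as percent of solvent control.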

A further test relates to U-87MG. As to the kind of experiment: MTT test, U-87MG. The method in brief:
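Human glioblastoma lines in MEM/25 mM HEPES with 5% FCS, seeded 24 h, then exposed 72 h at 37 °C to compounds at 10^−5 to 10^−10 M or solvent. MTT (1 mg/ml) 3 h, formazan dissolved in DMSO, absorbance 570/630 nm; optical density expressed as % of solvent control.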

SMILES strings stand for the structures.

In the case of `COc1ccc(-c2cc3c(OC)cc(OC)cc3[nH]c2=O)cc1` [CRL8246, 5,7-Dimethoxy-3-(4-methoxyphenyl)-1,2-dihydro-2-quinolinone], the viability at 10 µM was 101 ± 0.9% in the test on A-427, 98.1 ± 1.4% in the test on MCF7, 122 ± 1.7% with PC-3 and 92.1 ± 1.5% with U-87MG.
For `COc1ccc(-c2cc3c(OC)cc(OC)cc3n(CCC#N)c2=O)cc1` [CRL8247, 3-[5,7-Dimethoxy-3-(4-methoxyphenyl)-2-oxo-1,2-dihydro-1-quinolinyl]propanenitrile], in that order: 57 ± 1.5%, 78.9 ± 1.1%, 70.5 ± 4.6% and 59 ± 2.3%.
In the same order, the values of `COc1ccc(-c2cc3c(OC)cc(OC)cc3n(CCc3nnn[nH]3)c2=O)cc1` [CRL8256, 1-[2-(1H-1,2,3,4-Tetrazol-5-yl)ethyl]-5,7-dimethoxy-3-(4-methoxyphenyl)-1,2-dihydro-2-quinolinone] are 81.1 ± 2.9%, 81.8 ± 1.6%, 86 ± 2.3% and 84.7 ± 1.7%.
For `CCN(CC)C(=O)CCn1c(=O)c(-c2ccc(OC)cc2)cc2c(OC)cc(OC)cc21` [CRL8283, N,N-Diethyl-3-[5,7-dimethoxy-3-(4-methoxy-phenyl)-2-oxo-1,2-dihydro-1-quinolinyl]propanamide], in that order: 73.1 ± 1.7%, 76.2 ± 0.9%, 92.4 ± 1.7% and 69.9 ± 3.4%.
For `CCN(CC)C(=O)Cn1c(=O)c(-c2ccc(OC)cc2)cc2c(OC)cc(OC)cc21` [CRL8315, N,N-Diethyl-2-[5,7-dimethoxy-3-(4-methoxy-phenyl)-2-oxo-1,2-dihydro-1-quinolinyl]acetamide], the viability at 10 µM in the test with A-427 was found to be 92.6 ± 2.1%; in the test with MCF7, 96.2 ± 1.7%; in the test with PC-3, 93.6 ± 3%; in the test with U-87MG, 87.6 ± 4.5%.
`COc1ccc(-c2cc3c(OC)cc(OC)cc3n(CCN(C)C)c2=O)cc1` [CRL8316, 1-[2-(Dimethylamino)ethyl]-5,7-dimethoxy-3-(4-methoxyphenyl)-1,2-dihydro-2-quinolinone]: the viability at 10 µM in the test on A-427 turned out to be 79.1 ± 4.8%; in the test on MCF7 it was 78.9 ± 4%; with PC-3, 84.8 ± 2.3%; in the test on U-87MG, 74.3 ± 1.4%.

For the origin of these results see US6593342B1, “Pharmaceutical compositions comprising 2-quinolones” (Laboratoire L. Lafon, priority 1998, dated 2003).
